Experimental data: patent publication US20160340704A1, “METHOD OF MAKING A BENZYLISOQUINOLINE ALKALOID (BIA) METABOLITE, ENZYMES THEREFORE” (VALORBEC SOCIÉTÉ EN COMMANDITE, priority 2014, published 2016)
“Also recorded” adds a separate entry of the source.

Assays:
[1] = Relative abundance of BIAs in culture supernatants and cell extracts; format: cell-based, Saccharomyces cerevisiae; conditions: for fraction in which the BIA is mainly found (supernatant or cell extract): strains with heterologous enzymes
Method: Whole cell substrate feeding assays were used to test the function of each enzyme block individually and in combinations. To prepare the cells for the feeding assays, a colony of S. cerevisiae was inoculated in YNB-DO-GLU and incubated for 24 hours. Cultures were diluted to an OD600 of 0.8 into 6 ml of fresh YNB-DO-GLU and incubated for an additional 7 hours. Cells were harvested by centrifugation at 2000×g for 2 min. Supernatants were decanted and cells were suspended in 2 ml of Tris-EDTA (10 mM Tris-HCl, 1 mM EDTA, pH 8), containing 10 μM of one of the following feeding substrates: (R,S)-norlaudanosoline, (S)-reticuline, (S)-scoulerine or (S)-stylopine. Cells were incubated for 16 hours then harvested by centrifugation at 15000×g for 1 min. For BIA extraction from cells, the cell pellet was suspended in 500 μl methanol with ˜50 μl acid-washed glass beads and vortexed for 30 min. Cell extracts were clarified by centrifugation at 15000×g for 1 min and used directly for LC-MS analysis.
Detection of alkaloids in the sanguinarine biosynthetic pathway was performed by FT-MS using a 7T-LTQ FT ICR instrument (Thermo Scientific, Bremen, Germany). Alkaloids were separated by reverse phase HPLC (Perkin Elmer SERIES 200 Micropump, Norfolk, Conn.) using an Agilent Zorbax™ Rapid Resolution HT C18 2.1*30 mm, 1.8 micron column. Solvent A (0.1% acetic acid) and solvent B (100% acetonitrile) were used in a gradient elution to separate the metabolites of interest as follows: 0-1 min at 100% A, 1-6 min 0 to 95% B (linear gradient), 7-8 min 95% B, 8-8.2 min 100% A, followed by a 1 min equilibration at 100% A. Three microliters of either cell extract or supernatant fraction were loaded on the HPLC column run at a flow rate of 0.25 ml/min. Dilutions in methanol were performed to keep alkaloid concentrations within the range of standard curve values and avoid saturating FT signals. Following LC separation, metabolites were injected into the LTQ-FT-MS (ESI source in positive ion mode) using the following parameters: resolution, 100000; scanning range, 250 to 450 AMU; capillary voltage, 5 kV; source temperature, 350° C.; AGC target setting for full MS were set at 5×10^5 ions. Identification of alkaloids was done using retention time and exact mass (<2 ppm) of the monoisotopic mass of the protonated molecular ion [M+H]^+. LC-FT-MS data were processed using the freely available program Maven^56. When available authentic standards were used to confirm the identity of the BIA intermediates (using HPLC retention times and exact masses) and to quantify sanguinarine alkaloids. When unavailable, we assumed equal ionization efficiency between an intermediate and the closest available quantifiable alkaloid (m/z 302 and m/z=316: reticuline; cheilanthifoline: stylopine).
To confirm functional expression of enzymes, plasmids expressing each of the three blocks were individually transformed into S. cerevisiae and cultures of the strains were supplemented with either (R,S)-norlaudanosoline, (S)-reticuline, (S)-scoulerine or (S)-stylopine. Functional expression was verified by detection of the expected end products. As negative controls, yeast strains lacking enzyme blocks were incubated with each of the pathway intermediate to evaluate substrate recovery and to assess the relative proportion recovered in cellular extracts versus culture supernatants.

cheilanthifoline = test: CYP719 Ring A closure of cheilanthifoline to stylopine in GC1333; format: cell-based, Saccharomyces cerevisiae
Method: FIG. 11A-B: showing conversion of (S)-cheilanthifoline (FIG. 11A) or (S)-nandinine (FIG. 11B) to (S)-stylopine by purchased CYP719s. Plasmids harboring CYP719s were transformed into GC1333 containing an integrated PsCPR. Strains were incubated with the appropriate BIA overnight, and then total BIAs were extracted and total molar ratios were compared. PsSPSΔN was used as a control.
The 10 CYP719s with 95% activity on Ring A of scoulerine and the 10 CYP719s with activity on Ring B of scoulerine were tested for activity on cheilanthifoline and nandinine, respectively, in order to generate a branched stylopine synthesis pathway. […] CYP719s PsCFS and EX101, capable of converting >98% of scoulerine to cheilanthifoline and nandinine, respectively, were incubated with scoulerine. After 16 h, cells were pelleted and the supernatant fraction was collected. The supernatant was then applied to fresh yeast strains in order to supplement them with either TE containing nandinine or cheilanthifoline as necessary.

Molecule	conversion of cheilanthifoline to stylopine (cheilanthifoline) [%]	further results
Oc1ccc(CC2NCCc3cc(O)c(O)cc32)cc1O (racemic) [(R,S)-norlaudanosoline]	–	share of fed BIA found in the cell extract after 16 hours of incubation ([1]; wild-type / negative control cells, 16 hours): 10%; share of fed BIA found in the cell extract, initially ([1]; wild-type cells, 0 hours): 3%
c1cc2c(c3c1C[C@H]1c4cc5c(cc4CCN1C3)OCO5)OCO2 [(S)-stylopine]	–	fraction in which the BIA is mainly found (supernatant or cell extract) ([1]; 16 hours): predominantly found in the cell extract; also recorded: mostly found in the cellular extract fraction
COc1cc2c(cc1O)C1Cc3ccc4c(c3CN1CC2)OCO4 (stereo not drawn) [Cheilanthifoline, cheilanthifoline]	–	fraction in which the BIA is mainly found (supernatant or cell extract) ([1]; 16 hours): mainly found in the supernatant
C[N@@+]12CCc3cc4c(cc3[C@@H]1Cc1ccc3c(c1C2)OCO3)OCO4 [N-methylstylopine]	–	share of BIA found in the culture supernatant ([1]; Block 3 feeding assay, 16 hours): Approximately 55%
CN1Cc2c(ccc3c2OCO3)-c2ccc3cc4c(cc3c21)OCO4 [dihydrosanguinarine]	–	fraction in which the BIA is mainly found (supernatant or cell extract) ([1]; 16 hours): mostly found in the cellular extract fraction
EX101: CYP719 from Stylophorum diphyllum, SEQ ID NO: 380 (protein, listed as Stylophorum diphyllum) MESLIDFSNPAKMEELMSNPWIITAITLAVVIIMMTIFRRKSSSMKWPKGPKTLPIIGNMHLFGGTDLHVVLYNIAKVYGNVMTIWIGSWRPVIVISDIERAWEVLVNKSSDYSARDMPEITKLISSDWKTISTSDAGAFWTNLRKGLQNVALSPHNLASQFQFQESDIKKLIETIKEEGAVNNGIVKPLDHLKKAMVRLISRLIFGQDFDNDKYVEGMHHAIEELIRVSGYARLAEAFYYAKYLPSHKKAVRDVEEANRRVQKLVRPFLSLNPPTNTYLHFLRSQNYSEEVIIFAIFEAYLLGVDSTSSTTAWALAFLIREPNVQEKLYQELKNFTVKNGRDMLKVEDINKLPYLQATIKETMRMKPIAPLAIPHKACRDTSLMGSKIDKGTRVMVNIYALHHNEKIWKEPFKFMPERFLQTEGEVNGKAMEQSFLPFSAGMRICAGMELGKLQFNFALANLVNAFKWSCVADGVLPDMSDQLGFVLVMKTPLEARITPRC	> 98	–
EX96: CYP719 from Sanguinaria canadensis, SEQ ID NO: 375 (protein, listed as Sanguinaria canadensis) MEFEKIMMSNPWILAATTAVVFISITAIFFRRKSSSMEWPTGPKTLPIIGNMHLLGGTALHVVLHNFAKIYGNVMTIWIGSWRPVIVVSDIDRAWEVLVNKSSDYSARDMPEITKIISADWKTISTSDSGPFWTNLRKGLQNVALSPHNLAAQARFQERDISKMIETLKEEAALNNGIVKPLDHLKKATVRLISRLIYGQEFDNNKYVEDMHHAIEELIRVSGYARLAEAFYYAKYLPSHKKAVRDVEEANRRVKNLVRPFLSSNPPTNCYLHFLRTQNYPEEVIIFAIFEAYLLGVDSTSSTTAWALAFLVREPNVQEKLYQELKNFTTNNDRKMLKVEDINKLQYLQAVIKETMRMKPIAPLAIPHKACKETSLMGSKVDKGTRVMVNIYALHHNQKVWKEPYKFMPERFLETDNQDGNVGKAMEQSLLPFSAGMRICAGMELGKLQFTFSLANLVNAFKWSCVSDGVLPDMSDQLGFVLLMKNPLEARIVPRS	> 98	–
EX56: CYP719 from Chelidonium majus, SEQ ID NO: 335 (protein, listed as Chelidonium majus) MLLILIMDFRNSRSNLNPAKMEELMSDPWIITATTLAVVILLTTILRRKSSSMKWPKGPKTLPIIGNMHLFGGTDLHVVLYNIAKVYGNVMTIWIGSWRPVIVISDIERAWEVLVNKSSDYSARDMPEITKLISSDWKTISTSDAGAFWTNLRKGLQNVALSPHNLASQFQFQESDIKKLIETIKEEAAVNNGIVKPLDHLKKAMVRLISRLVFGQDFDNDEYVEGMHHAIEELIRVSGYARLAEAFYYAKYLPSHKKAVRDVEEANRRVQKLVRPFLSLNPPTNTYLHFLRSQNYSEEVIIFAIFEAYLLGVDSTSSTTAWALAFLIREPNVQEKLYQELKNFTVKNGRDMLKVEDINKLPYLQATIKETMRMKPIAPLAIPHKACRDTSLKGSKIDKGTRVMVNIYALHHNEKIWKEPFKFMPERFLQTEGENGKAMEQSFLPFSAGMRICAGMELGKLQFNFALANLVNAFKWSCVADGVLPDMSDQLGFVLVMKTPLEARITSRC	> 98	–
EX42: CYP719 from Argemone mexicana, B1NF19.1, SEQ ID NO: 321 (protein, listed as Argemone mexicana) MEEKIMTNNSPWILTSSTTTTTTILLSLLFTIFIILRRNKSSSSKMVWPTGPKTLPIIGNMNILGGTALHVVLHNLAKTYGNVMTIWIGSWRPVIVVSDIDRAWEVLVNKSSDYSARDMPEITKLATADWKTISSSDSGPFWTNLRKGLQNVALSPQNLSSQSKFQERDIIKTIQNLKEEAKMNNGIVKPLDHLKKAMVRLISRLIYGQDFDNDEYVEEMHHTIEELIRVSGYARLAEAFYYAKYLPSHKKAVREVLQANQRVQNLVRPLLSLNSPTNTYLHFLRSQNYEDEVIIFAIFEAYLLGVDSTSSTTAWALAYLIREPNVQEKLYEELKNFTNDNDRKMVKFEDLNKLQYLQAVVKETMRMKPIAPLAIPHKACRETSLMGRKVNQGTRVMVNIYALHHNQNVWKEPYKFNPERFLQKNQDGVDGKAMEQSLLPFSAGMRICAGMELGKLQFSFALANLVNAFKWSCVSDGVFPDMSDQLGFVLLMKTPLEAGIVPRM	> 98	–
EX67: CYP719 from Glaucium flavum, SEQ ID NO: 346 (protein, listed as Glaucium flavum) MEMKSSVVFSYPAMEELFKSNPWVITGTTLAVLILMTTMFRKKSLSMKWPKGPKTLPIIGNMHLLGGTNLQVILHNMSKVYGNVMTIWIGSWRPVIVVSDIERAWEVLVNKSSDYSGRDMPEITKIISADWKTISTSDSGPHWTNLRKGLQNVALSPHNLAAQFQFQERDICKLIETLKEEAKLNNGIVKPLDHLKKATIRLISRLVFGQDFDNSKYVEDMHHAIEELIRVSGYARLADAFYYAKYLPSQKKAVRDVEEAQRRVQRLVRPFLSLNPPTNCYLHFLRSQNYSDEVIIFAIFEAYLLGVDSTSSTTAWALAFLVREPNVQEKLYQELKNFTAKNGREMLKVEDINKLPYLQAVIKETMRMKPIAPLAIPHKACRDTSLKGRKIDKGTQIMVNIYALHHNENVWKEPFKFMPERFLQTDQDVNGKAMDQSLLPFSAGMRICAGMELGKLQFSFSLANLLNTFQWSCVADGVLPDMSDQLGFVLLMKTPLEARITPRC	> 98	–
EX76: CYP719 from Nandina domestica, SEQ ID NO: 355 (protein, listed as Nandina domestica) MEESFWIVSATIVVVFVIATMFRKSSSISSKTEWPAGPKKLPVIGNLHQLGGDVLHVVLANLAKVYGTVMTVWVGSWKPMIVISDIDRAWEVLVNKSSDYSGRAMPEITEIISAKGKTISTSDSGPHWSNLRKGLQNVALSPHNIAAQSRFQESDITKMIKTLKQEAASNNGIVQPLDHLKKSTVRLISRLIFGQDFDDDEYVEAMHLAVEELIRVSGYARLAEAFYYAKYLPSHKRAVSEVWEANRRVKRIVKPRLSANPPPNCYLHFLSSQDYSEEMIIFAIFEAYLLGVDSTSSTTAWALGFLIREPKVQERLYQELKNCAGENGLIKVEDINKLPYLQAVLKETMRMKPIAPLAIPHKAVRETSLAGNKVEPGTRVMVNLYAIHHNPKVWIDPHKFKPERFLQGEENGGGNLKLMEQSLLPFSAGMRTCAGMELGKLQFGFSLANLVNAFQWDCAKKGMFPDMSDLLGFVLLMKTPLQAKIVPRGSPSINGY	> 98	–
